AC50 cell viability and efficacy data for 51 molecules are collected here from the supplement of paper PMC10290057.

The structures appear in SMILES notation. Counter-ions that a name gives are not always drawn.

The subject of experiment [1] is HCT116. Kind of experiment: AC50 cell viability (CellTiter-Glo); higher = less potent. The following applies: 48 h. (In general: In ATP-based viability assays light output follows the ATP content of the culture.)
The test system of experiment [2] is HCT116. Kind of experiment: efficacy (fitted maximal change in viability relative to DMSO control); higher = less cytotoxic (negative = loss of viability). The following applies: 48 h.
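Throughout, for AC50 cell viability (CellTiter-Glo): HCT116 colorectal carcinoma cells screened at five concentrations per compound, luminescent viability scaled between DMSO wells and empty wells on each plate, curves fitted per compound.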
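Throughout, for efficacy (fitted maximal change in viability relative to DMSO control): Luminescence-based viability readout, five doses per compound, normalized against on-plate DMSO and empty-well controls, followed by dose-response curve fitting for every drug.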

In the experiment with HCT116 [1], `CC(C)C(=O)OCC(=O)[C@@]12O[C@@H](O[C@@H]1C[C@H]3[C@@H]4CC\C5=C\C(=O)\C=C/[C@]5(C)[C@H]4[C@@H](O)C[C@]23C)C6CCCCC6` [Ciclesonide] had an AC50 cell viability of 20.9 µM. For the same molecule, the efficacy with HCT116 [2] was -78.4%.
The like results for `CC/1=C/C(=O)N(O)/C(=C1)C2CCCCC2` [Ciclopirox] were, in that order, 3.72 µM and -89.1%.
In turn, `C[C@@H](NCCCc1cccc(C(F)(F)F)c1)c1cccc2ccccc12` [Cinacalcet hydrochloride] had an AC50 cell viability in the experiment with HCT116 [1] of 16.6 µM. Also, in the experiment with HCT116 [2], the efficacy was -92.6%.
In the experiment on HCT116 [1], `Nc1nc(Cl)nc2c1ncn2[C@H]1C[C@H](O)[C@@H](CO)O1` [Cladribine] had an AC50 cell viability of 0.295 µM. Besides, the efficacy with HCT116 [2] was -55.8%.
Molecule `Clc1ccc(Cn2c(CN3CCCC3)nc3ccccc32)cc1` [Clemizole hydrochloride] returned an AC50 cell viability in the experiment on HCT116 [1] of 23.5 µM. Besides, the efficacy in the experiment on HCT116 [2] was -93.1%.
The like results for `CCN(CC)CCOc1ccc(/C(=C(\Cl)c2ccccc2)c2ccccc2)cc1` [Clomifene citrate] were, in that order, 8.33 µM and -90.7%.
The matching figures for `Clc1ccccc1C(c1ccccc1)(c1ccccc1)n1ccnc1` [Clotrimazole]: 20.9 µM and -81.6%.
In the experiment on HCT116 [1], `CN1CCN(CC1)\C2=N\C3=C(NC4=C2C=CC=C4)C=CC(=C3)Cl` [Clozapine] returned an AC50 cell viability of 20.9 µM. The efficacy in the experiment with HCT116 [2] was -99.6%.
The matching figures for `O=C(c1ccc(F)c(F)c1Nc1ccc(I)cc1F)N1CC(O)([C@@H]2CCCCN2)C1` [Cobimetinib]: 1.86 µM and -105%.
Take `COC/1=C/C=C2\C(=C/C1=O)[C@H](CCC3=CC(=C(OC)C(=C23)OC)OC)NC(C)=O` [Colchicine]: the AC50 cell viability in the experiment on HCT116 [1] turned out to be 0.0661 µM. Further, the efficacy with HCT116 [2] is -59.9%.
Molecule `CN1CCc2c(n(Cc3ccc(C(=O)NO)cc3)c3ccccc23)C1` [Compound 7] registered an AC50 cell viability in the experiment on HCT116 [1] of 26.3 µM. For the same molecule, the efficacy with HCT116 [2] is -98.9%.
Take `O=[S+]([O-])(Nc1ccc(-c2cccnc2)c2cccnc12)c1cccc(C(F)(F)F)c1` [Compound 22d]: the AC50 cell viability with HCT116 [1] is 4.17 µM. Also, the efficacy in the experiment with HCT116 [2] was -73.3%.
In the experiment with HCT116 [1], `Cc1nc2c([nH]1)-c1ccccc1N(C(=O)c1ccc(NC(=O)c3ccccc3-c3ccccc3)cc1)CC2` [Conivaptan hydrochloride] yielded an AC50 cell viability of 20.9 µM. For the same molecule, in the experiment with HCT116 [2], the efficacy is -45.3%.
Turning to `COC1=C(OCCCN2CCOCC2)C=CC\3=C1/N=C(/NC(=O)C4=CN=C(N)N=C4)N5CC/N=C35` [Copanlisib], in the experiment on HCT116 [1], the AC50 cell viability was 0.0679 µM. Further, the efficacy with HCT116 [2] was -57.4%.
The like results for `C=C1C(=O)OC2/C=C(/C)CC/C=C(/C)CCC12` (configuration not stated) [Costunolide] were, in that order, 20.9 µM and -86.2%.
The matching figures for `C[C@H](NC(=O)CCC(F)(F)F)C(=O)N[C@@H]1C(=O)N(CCO)c2ncccc2-c2ccccc21` [Crenigacestat]: 0.332 µM and -44.7%.
Regarding `CC1(COc2ccc3c(c2)ncn3-c2ccc3cccc(N4CCC(N)CC4)c3n2)COC1` [Crenolanib], the AC50 cell viability in the experiment on HCT116 [1] worked out at 2.95 µM. In addition, in the experiment on HCT116 [2], the efficacy is -104%.
For the molecule `C[C@@H](Oc1cc(-c2cnn(C3CCNCC3)c2)cnc1N)c1c(Cl)ccc(F)c1Cl` [Crizotinib], the AC50 cell viability in the experiment with HCT116 [1] turned out to be 4.17 µM. In addition, the efficacy in the experiment with HCT116 [2] is -100%.
On to `CC(C)(O)/C=C\C(=O)[C@](C)(O)[C@H]1[C@H](O)C[C@]2(C)[C@@H]3CC=C4[C@@H](C=C(O)C(=O)C4(C)C)[C@]3(C)C(=O)C[C@@]12C` [Cucurbitacin I], for which the AC50 cell viability in the experiment with HCT116 [1] worked out at 0.166 µM. The efficacy in the experiment on HCT116 [2] is -77.1%.
The molecule `COc1cc(/C=C/C(=O)CC(=O)/C=C/c2ccc(O)c(OC)c2)ccc1O` [Curcumin] registered an AC50 cell viability with HCT116 [1] of 4.17 µM. The efficacy with HCT116 [2] was -68%.
The matching figures for `C[C@H]1CCC/C=C/C2C[C@H](O)C[C@H]2[C@H](O)/C=C/C(=O)O1` (some centres not stated) [Cyanein]: 0.235 µM and -91.1%.
The like results for `CN(C)CCC=C1C2=C(C=CC=C2)\C=C/C3=C1C=CC=C3` [Cyclobenzaprine hydrochloride] were, in that order, 18.6 µM and -92.3%.
The like results for `OC[C@H]1O[C@@H]2[C@@H](OC\3=N\C(=N)\C=C/[N@@]23)[C@@H]1O` [Cyclocytidine hydrochloride] were, in that order, 0.186 µM and -59.3%.
`C[C@@H]1C[C@@H]([C@H](O)CC2CC(=O)NC(=O)C2)C(=O)[C@@H](C)C1` [Cycloheximide]: in the experiment on HCT116 [1], the AC50 cell viability is 0.468 µM. Moreover, the efficacy with HCT116 [2] was -68.6%.
As for `CN1CCC(CC1)=C2C3=C(C=CC=C3)\C=C/C4=C2C=CC=C4` [Cyproheptadine hydrochloride], the AC50 cell viability in the experiment with HCT116 [1] turned out to be 23.5 µM. Further, the efficacy in the experiment with HCT116 [2] is -81.9%.
In the case of `NC\1=N\C(=O)N(\C=C1)[C@@H]2O[C@H](CO)[C@@H](O)[C@@H]2O` [Cytarabine], the AC50 cell viability in the experiment on HCT116 [1] was 0.0742 µM. In the experiment on HCT116 [2], the efficacy was -61.7%.
On to `CCCCCCCCCCCCCC(=O)N[C@H](CO)[C@H](O)c1ccc([N+](=O)[O-])cc1` [D-NMAPPD], for which the AC50 cell viability in the experiment on HCT116 [1] was found to be 26.3 µM. The efficacy in the experiment with HCT116 [2] was -101%.
The matching figures for `ClC/1=C(NCCN2CCOCC2)/C(=O)C3=C(C=CC=N3)C1=O` [DA-3003-1]: 5.9 µM and -90.7%.
The like results for `Nc1cccc([S+](=O)([O-])N2CCCN([S+](=O)([O-])c3ccc4c(c3)OCCO4)CC2)c1` [DASA-58] were, in that order, 14.8 µM and -59.9%.
In turn, `CNC(=O)c1cc(Oc2ccc(NC(=O)Nc3cc(C(C)(C)C)nn3-c3ccc4ncccc4c3)c(F)c2)ccn1` [DCC-2036] displayed an AC50 cell viability in the experiment with HCT116 [1] of 11.8 µM. Further, in the experiment with HCT116 [2], the efficacy was -76%.
The like results for `CCCCCN(CCC12CC3CC(CC(C3)C1)C2)C(=O)NCCCc1ccncc1` [DE-096] were, in that order, 16.6 µM and -90.2%.
In the experiment on HCT116 [1], `COc1cc([C@@H]2c3cc4c(cc3[C@@H](O)C3COC(=O)C32)OCO4)cc(OC)c1O` (some centres not stated) [DMEP] registered an AC50 cell viability of 0.235 µM. Further, the efficacy with HCT116 [2] was -52.3%.
The matching figures for `CN(C)/N=N/c1nc[nH]c1C(N)=O` [Dacarbazine]: 10.5 µM and -45.8%.
Consider `O=C(/C=C/c1ccc(CN(CCO)CCc2c[nH]c3ccccc23)cc1)NO` [Dacinostat], for which, in the experiment on HCT116 [1], the AC50 cell viability is 0.0833 µM. Besides, in the experiment on HCT116 [2], the efficacy is -89.1%.
The like results for `COc1cc2ncnc(Nc3ccc(F)c(Cl)c3)c2cc1NC(=O)/C=C/CN1CCCCC1` [Dacomitinib] were, in that order, 8.33 µM and -99.1%.
The like results for `CO[C@@H](C(=O)N1Cc2[nH]nc(NC(=O)c3ccc(N4CCN(C)CC4)cc3)c2C1)c1ccccc1` [Danusertib] were, in that order, 1.66 µM and -71.4%.
`O=C(/C=C/c1cccnc1)NCCCCC1CCN(C(=O)c2ccccc2)CC1` [Daporinad]: in the experiment on HCT116 [1], the AC50 cell viability worked out at 0.00525 µM. In the experiment with HCT116 [2], the efficacy was -94.1%.
`CC(O)c1cc(C(=O)N[C@@H](C)Cn2ccc(-c3ccc(C#N)c(Cl)c3)n2)n[nH]1` (some centres not stated) [Darolutamide (ODM-201)] had an AC50 cell viability in the experiment on HCT116 [1] of 16.6 µM. Moreover, the efficacy in the experiment with HCT116 [2] is -38.4%.
As to `Cc1nc(Nc2ncc(C(=O)Nc3c(C)cccc3Cl)s2)cc(N2CCN(CCO)CC2)n1` [Dasatinib], the AC50 cell viability with HCT116 [1] came out at 14.8 µM. Also, the efficacy with HCT116 [2] is -81.1%.
On to `C[C@@H]1C[C@H]2[C@@H]3\C=C(C)/C4=C/C5=C(C[C@]4(C)[C@H]3[C@@H](O)C[C@]2(C)[C@@]1(O)C(=O)CO)C=N[N]5C6=CC=CC=C6` [Deacetyl cortivazol], for which, in the experiment on HCT116 [1], the AC50 cell viability turned out to be 26.3 µM. Also, the efficacy with HCT116 [2] was -121%.
`CC[C@@](C)(Nc1ccnc(-c2c[nH]c3ncccc23)n1)C(=O)NCC(F)(F)F` [Decernotinib]: in the experiment on HCT116 [1], the AC50 cell viability came out at 20.9 µM. For the same molecule, the efficacy with HCT116 [2] is -56.7%.
The like results for `NC\1=N\C(=O)N(\C=N1)[C@H]2C[C@H](O)[C@@H](CO)O2` [Decitabine] were, in that order, 9.34 µM and -42.1%.
The like results for `CNC(=O)c1ccc(Nc2ncc(C(F)(F)F)c(NCc3nccnc3N(C)[S+](C)(=O)[O-])n2)cc1` [Defactinib] were, in that order, 1.86 µM and -71.4%.
The like results for `O=C(O)c1ccc(-n2nc(-c3ccccc3O)nc2-c2ccccc2O)cc1` [Deferasirox] were, in that order, 13.2 µM and -92.9%.
The molecule `CC(=O)N(O)CCCCCNC(=O)CCC(=O)N(O)CCCCCNC(=O)CCC(=O)N(O)CCCCCN` [Deferoxamine mesylate] displayed an AC50 cell viability in the experiment with HCT116 [1] of 9.34 µM. Moreover, the efficacy in the experiment with HCT116 [2] is -95.9%.
The matching figures for `CCC[C@H](NC(=O)/C(C#N)=C/c1cccc(Br)n1)c1ccccc1` [Degrasyn]: 26.3 µM and -104%.
The molecule `COC1=CC2=C(C=C1OC)[C@H]3[C@@H](CO2)OC4=C(C=CC5=C4\C=C/C(C)(C)O5)C3=O` [Deguelin] registered an AC50 cell viability with HCT116 [1] of 5.25 µM. The efficacy in the experiment on HCT116 [2] is -82.8%.
Molecule `CC(C)C[C@H](NC(=O)[C@@H](NC(=O)c1cccc(-c2ccccc2)n1)[C@@H](C)O)B(O)O` [Delanzomib] registered an AC50 cell viability in the experiment with HCT116 [1] of 0.0362 µM. Moreover, in the experiment with HCT116 [2], the efficacy was -84.8%.
The like results for `c1ccc(Cn2c(-c3ccc(OCC(C4CCNCC4)n4c(-c5ccccc5)nc5ccccc54)cc3)nc3ccccc32)cc1` (configuration not stated) [Deltarasin] were, in that order, 9.34 µM and -89.7%.
Turning to `CN[C@H]1CCC2=CC(=C(OC)C(=C2C/3=C/C=C(OC)\C(=O)/C=C13)OC)OC` [Demecolcine], the AC50 cell viability in the experiment with HCT116 [1] was 0.059 µM. Besides, the efficacy in the experiment with HCT116 [2] is -62.6%.
In turn, `COCCNCCc1cccc(Nc2ncc3c(n2)-c2ccccc2[C@H](c2ccccc2F)C3)c1` [Derazantinib] registered an AC50 cell viability with HCT116 [1] of 10.5 µM. Besides, the efficacy with HCT116 [2] was -95.8%.
